# Assay results from patent publication US8563254B2, “Biomarkers of tumor pharmacodynamic response” (Novartis AG, priority 2009, dated 2013).
# What was measured:
# [1] = test system: A375 cells; assay: Quantitative RT-PCR of IL-8 mRNA, A375; type: cell-based, human; conditions: A375, 0.3 μM, 16 hr
# Method: Total cellular RNA was extracted from the GTL-16 and A375 cell lines using RNeasy mini kit (Qiagen, Inc., Valencia, Calif., USA). Total RNA quantitation was carried out using a RiboGreen assay (Invitrogen Corporation, Carlsbad, Calif., USA). 1 μg of total RNA was reverse transcribed using AMV reverse transcriptase (Reverse Transcription Kit, Promega U.S., Madison, Wis., USA). A 20 μl reaction cocktail was prepared as follows; 1 μg total RNA in 10 μl of RNase, DNase-free H2O, 4 μl of 25 mM MgCl2, 2 μl of 10× reverse transcriptase buffer, 2 μl of 10 mM dNTP's, 1 μl of 500 μg ml^−1 random hexamers, 1.5 μl of 10 μl ml^−1, and 40 U μl^−1 0.5 μl of recombinant RNase Inhibitor. Real time PCR was performed using a 7900HT fast real-time PCR system (Applied Biosystems, Foster City, Calif., USA) using the Power SYBR Green PCR master mix (Applied Biosystems). The primers for IL-8 and GAPDH were: IL-8 sense: 5′-[…]-3′ (SEQ ID NO:3) and IL-8 antisense:
# 5′-[…]-3′ (SEQ ID NO:4); and GAPDH sense:
# 5′-[…]-3′ (SEQ ID NO:5), and GAPDH antisense;
# 5′-[…]-3′. (SEQ ID NO:6) The amplification process involved an initial 5 min denaturing step at 95° C. This was followed by annealing reactions for both IL-8 and GAPDH, of 45 s at 95° C. with 230 s at 68° C. for 34 cycles and 1 min at 95° C. with 1 min at 60° C. and 1 min 72° C. for 30 cycles, respectively. The final extension was 10 min at 72° C. […]
# [2] = test system: GTL-16 cells; assay: Western blot of nuclear protein fractions, GTL-16; type: cell-based, human; conditions: GTL-16, 0.3 μM, 16 hr and 24 hr, normalized to total protein
# Method: Total protein lysates were prepared from the GTL-16 and A375 cells with RIPA lysis buffer (Upstate, Millipore Corporation, Charlottesville, Va., USA). Cells were washed with PBS and 500 ul of ice-cold RIPA buffer, containing protease inhibitor cocktail tablet (Roche Diagnostic GmbH, Mannheim, Germany) and phosphatase inhibitors (Sigma-Aldrich, Inc., St. Louis, Mo., USA), was added to each plate on ice. After 15 min the cells were scrapped from the plate surface and spun at 16000 RPM for 10 min at 4° C. The supernatant was collected and frozen at −80° C. Nuclear protein fractions were prepared by the NE-PER nuclear and cytoplasmic extraction kit (Pierce Biotechnology, Rockford, Ill., USA). Proteins were quantified by bicinchoninic acid assay (Pierce Biotechnology, Rockford, Ill., USA) for Western blotting.
# Primary antibodies specific for NFκB p65, cREL, p-ERK1/2, p-c-jun, ERK1 and Jun were purchased from Santa Cruz Biotechnology (Santa Cruz Biotechnology, Inc., Santa Cruz, Calif., USA) with the exception of Hsp70 and TBP (nuclear loading control), which were obtained from StressGen (StressGen, Assay Designs, Inc., Aim Arbor, Mich., USA) and Abcam (Abcam Inc., Cambridge, Mass., USA), respectively. […]
# [3] = test system: A375 tumor-bearing mice; assay: Serum IL-8 / mouse KC in A375 mouse xenograft model; type: in vivo; parameters: drop of serum IL-8 levels / time at which serum IL-8 recovered to pre-treatment level: dose or concentration left out as unconfirmed
# Method: The in vivo study was carried out in strict accordance with Swiss law for animal protection and was approved by the Swiss Cantonal Veterinary Office of Basel-Stadt. GTL-16 (4×10^6) and A375 cells (5×10^6) were inoculated subcutaneously in the right flank in 200 μl Hanks' balanced salt solution (HBSS) or PBS, respectively. Invasive procedures were performed under Forene anesthesia. All experiments were performed in female Harlan HsdNpa: Athymic Nude-nu mice (Laboratory Animal Services, Novartis Pharma AG, Basel). The animals were kept under optimized hygienic conditions with 12 hr dark, 12 hr light conditions. The animals were fed food and water ad libitum. […] Mice in the control group were injected with the vehicle (D5W). Serum was isolated and tumors dissected over the time course 0-168 hr. Tumors were cut in two halves. One half was paraffin embedded and the other snap frozen, and stored at −80° C.
# Human IL-8 levels in cell culture supernatants treated with NVP-AUY922 were initially assessed as part of a multiplexed bead-based cytokine panel (hu 27-plex panel I, Bio-rad Laboratories, Hercules, Calif., USA) with a BioPlex Suspension Array System (Bio-rad). Human IL-8 and mouse KC levels in serum derived from GTL-16 and A375 tumor-bearing mice treated with NVP-AUY922 were measured by single-plex cytokine bead-based assay (Milliplex, Millipore, Billerica, Mass., USA). The BioPlex system uses a liquid suspension array of beads. The beads align in a single file through a flow cell to the detector, where a red classification laser at a wavelength of 635 nm and a green reporter laser at a wavelength of 532 nm are used to identify each bead's spectral address and associated reporter signal, respectively.
structure (smiles),measurement,setting,value
"CCNC(=O)c1noc(-c2cc(C(C)C)c(O)cc2O)c1-c1ccc(CN2CCOCC2)cc1 [NVP-AUY922, 5-(2,4-Dihydroxy-5-isopropyl-phenyl)-4-(4-morhpolin-4-ylmethyl-phenyl)-isoxazole-3-carboxylic acid ethylamide]",IL-8 mRNA levels lower in treated versus untreated cells,[1],95%
same,change in nuclear NFκB p65 levels,[2],−26%
same,decrease in nuclear phospho-c-Jun levels,[2],~83%
same,time at which serum IL-8 recovered to pre-treatment level,[3],168 h
same,drop of serum IL-8 levels,[3]; 48 hr post-treatment,approximately 40%
same,"murine IL-8 levels, measured indirectly as mu KC",[3]; serum,unchanged
